Read-outs that look alike come from different tables or passages of the source.
How the values were obtained:
[1] = test system: Desulfovibrio vulgaris Hindelborough (DvH); test: H2S production by stationary-phase DvH culture on lactate/sulfate medium with metabolic inhibitors; assay type: cell-based; settings: for effect of metabolic inhibitor on DvH culture / H2S production: tested at different concentrations
Protocol: Experiments were carried out with the SRB bacterium Desulfovibrio vulgaris Hindelborough (DvH) for which the genome has been sequenced and which is the model system for the study of sulfate-reducing bacteria.
The culture medium was a lactate/sulfate medium comprising: sodium sulfate 28 mM, magnesium sulfate 8 mM, lactate 45 mM and oligoelements (iron, Zn, Mn, Cu, Co, Mo, Ni, Se, W, Mg).
Various metabolic inhibitors were tested at different concentrations; examples were the addition of iron, oxygen, or a detergent. […] The study was continued by looking at the effect of adding small defined quantities of nitrite and nitrate on the production of H2S by the SRB.

[2] = test system: DvH+Shewanella consortium; settings: 5 mM; for production of H2S: FIG. 3 panel B
Excerpt: FIG. 3 represents the effect of adding exogenous bacteria of the Shewanella type on the growth of a strain of sulfate-reducing bacteria, DvH, in the presence of nitrate or nitrite (panel A, %=quantity of biomass expressed as a % of the optical density (OD) at 600 nm [nanometers], such that 100% represents the OD at 600 nm for the biomass of a culture of DvH on a lactate/sulfate medium in the absence of treatment) and on the production of H2S (panel B, mM H2S). The control (growth and production of H2S) used a DvH culture with or without the addition of inhibitor. The effect of adding the Shewanella bacteria on the growth and production of H2S is presented in the presence of nitrate (+nitrite) and in the absence of nitrite (nitrite). The Shewanella bacteria alone had no significant effect on H2S production. In FIG. 3, the various symbols represent the experiments under the following conditions: ? =5 mM of nitrate on a DvH+Shewanella consortium, ? =consortium of DvH+Shewanella bacteria in the presence of 5 mM of nitrite, ? =presence of DvH bacteria alone, ? =presence of DvH bacteria alone+nitrite;
A wide range of non-pathogenic aerobic and anaerobic bacteria known to be decontaminants that are compatible with a toxic environment was tested, including the following Gram− aerobic bacteria: Shewanella oneidensis, Rhodobacter sphaeroides, Rhodobacter denitrificans, R. velkampi, Pseudomonas stutzeri, Pseudomonas zobell and Rhospeudomonas palustri, as well as the following anaerobic Gram+ bacteria: Bacillus mojavensis and Bacillus amiloliquefaciens.
However, it has been discovered that it is possible to overcome this bactericidal effect problem by adding exogenic bacteria.

[3] = test system: sulfate-reducing bacteria (SRB)
Protocol: Experiments were carried out on a sewerage system diagrammatically shown in FIG. 6, comprising a cesspool 3 supplied with effluent 1 from a conduit 11, a lifting pump 4 that was used to supply a force main 2 from the cesspool 3 to a holding tank 8 cooperating with a gravity fed transfer conduit 9 to a treatment plant (not shown).
The force main 2 was 1170 m [meter] long with a nominal diameter of 250 mm [millimeter], giving a volume of 57.5 m^3. The delivery of the lifting pump was 150 m^3/hour. A nitrite tank 12 cooperated with a dosing pump 7 to inject nitrite into the effluents entering the force main 2.
Sodium nitrite NaNO2 was tested in 40% by weight solution with a density of 1.3. This reagent was injected directly into the effluent pumping pit almost level with the inlet thereof into the force main via a dedicated dosing pump 7 that could reach a delivery of up to 14 L/h. Start-up of the dosing pump 7 was linked with that of the lifting pump 4 with the two pumps being stopped by a low level of effluents in the cesspool 3.
Various measurements for the concentration of sulfide in water leaving the force main were carried out. The concentration of sulfide in water was determined by means of an assay kit using the reaction of H2S with aniline forming a colorless intermediate that is oxidized by ferric ions to a colored compound: methylene blue, an optical disk comparator with a color gradient, was used to determine the concentration of sulfide in the solution as a function of its color. The temperatures of the effluent and redox potential were measured at the holding tank or settling tank 8 using standard equipment.

[4] = test system: bacteria from the sludge sample (Shigella/Escherichia coli/Salmonella, Clostridium, Desulfovibrio type)
[5] = test system: SRB bacteria that produce H2S; settings: treatment with nitrite alone; cited from earlier work
[6] = test system: Desulfovibrio vulgaris Hindelborough (DvH); settings: SRB pure strain (DvH alone), FIG. 2
Excerpt: FIG. 2 represents the relationship between the quantity of biomass (%) and the production of H2S (mM) for a stationary phase culture of DvH bacteria in the presence of different concentrations of nitrites or nitrates in the culture medium. The quantity of biomass (bacterial survival) is expressed as the % optical density (OD) at 600 nm [nanometer] compared with the OD at 600 nm of the biomass for a DvH culture on a lactate/sulfate medium in the absence of treatment, this culture representing 100%;
In FIG. 2, the quantities of biomass (% growth) and production of H2S (mM) are shown under the following conditions: ? =% growth+nitrite, ? =H2S production+nitrite, ? =% growth+nitrate, ? H2S production+nitrate;
In FIG. 2, bacterial survival was monitored.

With `[Fe]` [iron] the “effect of metabolic inhibitor on DvH culture / H2S production” value [1] was “induced a drastic oxidizing stress and caused bacterial death”.
With `O=[N+]([O-])O` [nitrate] the “concentration giving visible and substantial inhibition of H2S production” value [1] was 15 mM, the “reduction of the production of H2S” value [1] was “approximately 90%” and the “production of H2S” value [2] was “no significant reduction in H2S production was observed”.
With `O=NO` [nitrite] the “concentration giving visible and substantial inhibition of H2S production” value [1] was at least 5 mM, the “reduction of the production of H2S” value [1] was “approximately 90%” and the biomass ([2]; FIG. 3 panel A) was “maintaining the biomass”. The “production of H2S” value [2] was “reduction in the production of H2S”, the “rise in the sulfide concentrations after stopping the nitrite treatment” value ([3]; after 24 h) was “no more than 25%” and the “rise in the sulfide concentrations after stopping the nitrite treatment” value ([3]; after stopping treatment) was “approximately 10%”. The “biomass (bactericidal effect)” value ([4]; beyond 5 mM of nitrite) was “biomass was slightly affected”, the “inhibiting effect on H2S production” value ([4]; beyond 5 mM of nitrite) was “inhibiting effect on H2S production reduced” and the cell death ([4]; even in the absence of Shewanella, concentration 5 mM or less) was “did not induce cell death”. The “duration of the effect on the bacteria after nitrite is consumed” value ([4]; nitrite consumed over time) was “long-lasting effect or remanence effect”, the “concentration from which a drop in the production of H2S is induced” value ([4]; sludge sample) was at least 3 mM and the “effect on hydrogen sulfide production” value [5] was “No effect on hydrogen sulfide production is observed”.
In the case of `O=O` [oxygen], the “effect of metabolic inhibitor on DvH culture / H2S production” value [1] is reported as “production of H2S restarted as soon as the redox potential of the medium became negative again”.
With `O=NO` [sodium nitrite] the bacterial survival [6] was “lethal effect on bacteria”, the “maximum quantity of dissolved sulfide H2S at the outlet from the force main” value ([3]; 2.5 g/m^3 to 6 g/m^3 per g/m^3 of sulfide to be reduced, every other day or overnight) was at most 1.5 mg/L and the “quantity of dissolved sulfites at the force main outlet” value ([3]; 4 g to 5 g per gram of dissolved sulfide produced in the absence of treatment) was at most 1 mg/L. The “reduction of dissolved sulfide produced by the conduit” value ([3]; daily treatments with 2.5 g/m^3 to 6 g/m^3 of NaNO2) was 1 g/m^3 and the “remanence of inhibiting activity” value ([3]; on-site, transient and intermittent treatment) was “remanence effect”.

Source: US20120305476A1, “TREATMENT METHOD FOR REDUCING THE PRODUCTION OF AN H2S COMPOUND IN AQUEOUS EFFLUENTS PASSING INTO A PIPE” (CENTRE NATIONAL DE LA RECHERCHE SCIENTIFIQUE (CNRS), priority 2010, published 2012)
